The record followed here is ChEMBL document CHEMBL1697731, “Cheminformatics analysis of assertions mined from literature that describe drug-induced liver injury in different species” (Chem Res Toxicol, 2010).

The subject of series [1] is Hepatotoxicity. Briefly: Literature-mined compound from Fourches et al multi-species drug-induced liver injury (DILI) dataset, effect in humans. To be noted: human.
Series [2] relates to Hepatotoxicity. As to the kind of experiment: Literature-mined compound from Fourches et al multi-species drug-induced liver injury (DILI) dataset, effect in rodents. To be noted: rodentia.
Series [3] deals with Hepatotoxicity. As to the kind of experiment: Literature-mined compound from Fourches et al multi-species drug-induced liver injury (DILI) dataset, effect in non-rodents.

In the case of `CNC1=Nc2ccc(Cl)cc2C(c2ccccc2)=[N+]([O-])C1` [CHLORDIAZEPOXIDE], the Hepatotoxicity result in the series on Hepatotoxicity [1] is recorded as “no drug-induced liver injury reported”; with Hepatotoxicity [2], “drug-induced liver injury reported”; with Hepatotoxicity [3] it was “no drug-induced liver injury reported”.

As to `CC(=O)O[C@]1(C(C)=O)CC[C@H]2[C@@H]3C=C(Cl)C4=CC(=O)CC[C@]4(C)[C@H]3CC[C@@]21C` [CHLORMADINONE ACETATE], the Hepatotoxicity result with Hepatotoxicity [1], with Hepatotoxicity [2] and in the series with Hepatotoxicity [3] was “drug-induced liver injury reported” in each case.

As for `CN1C(=O)CCS(=O)(=O)C1c1ccc(Cl)cc1` (centres undefined) [CHLORMEZANONE], the Hepatotoxicity result in the series on Hepatotoxicity [1] was “drug-induced liver injury reported”; in the series with Hepatotoxicity [2] it was “no drug-induced liver injury reported”; with Hepatotoxicity [3], “no drug-induced liver injury reported”.

In the case of `Clc1ccc(C(c2ccc(Cl)cc2)C(Cl)(Cl)Cl)cc1` [CHLOROPHENOTHANE], the values for the Hepatotoxicity result with Hepatotoxicity [1], in the series on Hepatotoxicity [2] and with Hepatotoxicity [3] were “no drug-induced liver injury reported”, “drug-induced liver injury reported” and “no drug-induced liver injury reported”, respectively.

As to `CCN(CC)CCCC(C)Nc1ccnc2cc(Cl)ccc12` (centres undefined) [CHLOROQUINE], the Hepatotoxicity entry with Hepatotoxicity [1], in the series on Hepatotoxicity [2] and in the series with Hepatotoxicity [3] was “drug-induced liver injury reported” each time.

Turning to `Cc1cc(O)cc(C)c1Cl` [CHLOROXYLENOL], the Hepatotoxicity entry is listed as “no drug-induced liver injury reported” in the series on Hepatotoxicity [1], “drug-induced liver injury reported” in the series on Hepatotoxicity [2] and “no drug-induced liver injury reported” in the series with Hepatotoxicity [3].

Regarding `CN(C)CCC(c1ccc(Cl)cc1)c1ccccn1` (centres undefined) [CHLORPHENIRAMINE], the Hepatotoxicity entry is “drug-induced liver injury reported” in the series on Hepatotoxicity [1], “no drug-induced liver injury reported” in the series with Hepatotoxicity [2] and “no drug-induced liver injury reported” in the series on Hepatotoxicity [3].

In the case of `CN(C)CCCN1c2ccccc2Sc2ccc(Cl)cc21` [CHLORPROMAZINE], the Hepatotoxicity result in the series on Hepatotoxicity [1], in the series with Hepatotoxicity [2] and with Hepatotoxicity [3] was “drug-induced liver injury reported” in each case.

With `CCCNC(=O)NS(=O)(=O)c1ccc(Cl)cc1` [CHLORPROPAMIDE], the Hepatotoxicity entry in the series with Hepatotoxicity [1] is “drug-induced liver injury reported”; in the series on Hepatotoxicity [2], “drug-induced liver injury reported”; in the series on Hepatotoxicity [3], “no drug-induced liver injury reported”.

Take `CN(C)[C@@H]1C(O)=C(C(N)=O)C(=O)[C@@]2(O)C(O)=C3C(=O)c4c(O)ccc(Cl)c4[C@@](C)(O)[C@H]3C[C@@H]12` [CHLORTETRACYCLINE]: the Hepatotoxicity entry is on record as “no drug-induced liver injury reported” with Hepatotoxicity [1], “drug-induced liver injury reported” with Hepatotoxicity [2] and “drug-induced liver injury reported” in the series with Hepatotoxicity [3].

As for `C=C1CC[C@H](O)C/C1=C/C=C1\CCC[C@]2(C)[C@@H]([C@H](C)CCCC(C)C)CC[C@@H]12` [CHOLECALCIFEROL], the Hepatotoxicity entry in the series with Hepatotoxicity [1] was “no drug-induced liver injury reported”; with Hepatotoxicity [2], “drug-induced liver injury reported”; in the series on Hepatotoxicity [3], “no drug-induced liver injury reported”.

In the case of `Nc1ccn(C[C@@H](CO)OCP(=O)(O)O)c(=O)n1.O.O` [CIDOFOVIR], the Hepatotoxicity result with Hepatotoxicity [1] is “drug-induced liver injury reported”; in the series on Hepatotoxicity [2], “no drug-induced liver injury reported”; with Hepatotoxicity [3], “no drug-induced liver injury reported”.

As for `CN/C(=N/CCSCc1nc[nH]c1C)NC#N` [CIMETIDINE], the Hepatotoxicity result with Hepatotoxicity [1] (Liver), in the series with Hepatotoxicity [2] (Liver) and with Hepatotoxicity [3] (Liver) was “drug-induced liver injury reported” in each case.

In the case of `O=C(O)c1cc(-c2ccccc2)nc2ccccc12` [CINCHOPHEN], the Hepatotoxicity entry is listed as “drug-induced liver injury reported” with Hepatotoxicity [1], “no drug-induced liver injury reported” in the series with Hepatotoxicity [2] and “drug-induced liver injury reported” in the series on Hepatotoxicity [3].

With `CCn1nc(C(=O)O)c(=O)c2cc3c(cc21)OCO3` [CINOXACIN], the Hepatotoxicity entry in the series with Hepatotoxicity [1] is listed as “drug-induced liver injury reported”; with Hepatotoxicity [2], “no drug-induced liver injury reported”; with Hepatotoxicity [3], “no drug-induced liver injury reported”.

On to `CC(C)(Oc1ccc(C2CC2(Cl)Cl)cc1)C(=O)O` (centres undefined) [CIPROFIBRATE], for which the Hepatotoxicity entry in the series with Hepatotoxicity [1], in the series on Hepatotoxicity [2] and in the series with Hepatotoxicity [3] was “drug-induced liver injury reported” throughout.

In the case of `O=C(O)c1cn(C2CC2)c2cc(N3CCNCC3)c(F)cc2c1=O` [CIPROFLOXACIN], the Hepatotoxicity entry in the series with Hepatotoxicity [1] (Liver) is recorded as “drug-induced liver injury reported”; in the series with Hepatotoxicity [2] (Liver), “drug-induced liver injury reported”; with Hepatotoxicity [3] (Liver) it was “no drug-induced liver injury reported”.

Regarding `COc1cc(N)c(Cl)cc1C(=O)NC1CCN(CCCOc2ccc(F)cc2)CC1OC` (centres undefined) [CISAPRIDE], the Hepatotoxicity result in the series with Hepatotoxicity [1] is given as “drug-induced liver injury reported”; in the series on Hepatotoxicity [2] it was “no drug-induced liver injury reported”; in the series with Hepatotoxicity [3], “no drug-induced liver injury reported”.

On to `CN(C)CCCC1(c2ccc(F)cc2)OCc2cc(C#N)ccc21` (centres undefined) [CITALOPRAM], for which the Hepatotoxicity result with Hepatotoxicity [1] is recorded as “no drug-induced liver injury reported”; in the series on Hepatotoxicity [2], “drug-induced liver injury reported”; with Hepatotoxicity [3], “no drug-induced liver injury reported”.

Turning to `O=C(O)CC(O)(CC(=O)O)C(=O)O` [CITRIC ACID], the Hepatotoxicity entry in the series with Hepatotoxicity [1] is given as “no drug-induced liver injury reported”; in the series on Hepatotoxicity [2] it was “drug-induced liver injury reported”; in the series with Hepatotoxicity [3] it was “no drug-induced liver injury reported”.

Take `Nc1nc(Cl)nc2c1ncn2[C@H]1C[C@H](O)[C@@H](CO)O1` [CLADRIBINE]: the Hepatotoxicity entry with Hepatotoxicity [1] is “drug-induced liver injury reported”; with Hepatotoxicity [2], “no drug-induced liver injury reported”; with Hepatotoxicity [3], “no drug-induced liver injury reported”.

In the case of `CC[C@H]1OC(=O)[C@H](C)[C@@H](O[C@H]2C[C@@](C)(OC)[C@@H](O)[C@H](C)O2)[C@H](C)[C@@H](O[C@@H]2O[C@H](C)C[C@H](N(C)C)[C@H]2O)[C@](C)(OC)C[C@@H](C)C(=O)[C@H](C)[C@@H](O)[C@]1(C)O` [CLARITHROMYCIN], the Hepatotoxicity result is listed as “drug-induced liver injury reported” with Hepatotoxicity [1], “drug-induced liver injury reported” with Hepatotoxicity [2] and “no drug-induced liver injury reported” in the series with Hepatotoxicity [3].

`O=C(O)[C@H]1/C(=C/CO)O[C@@H]2CC(=O)N21` [CLAVULANIC ACID]: the results for the Hepatotoxicity entry with Hepatotoxicity [1], in the series on Hepatotoxicity [2] and with Hepatotoxicity [3] were “drug-induced liver injury reported”, “no drug-induced liver injury reported” and “no drug-induced liver injury reported”, respectively.

With `CCC[C@@H]1C[C@@H](C(=O)N[C@@H]([C@H]2O[C@H](SC)[C@H](O)[C@@H](O)[C@H]2O)[C@H](C)Cl)N(C)C1` [CLINDAMYCIN], the Hepatotoxicity entry is on record as “drug-induced liver injury reported” in the series with Hepatotoxicity [1], “no drug-induced liver injury reported” in the series with Hepatotoxicity [2] and “no drug-induced liver injury reported” in the series with Hepatotoxicity [3].

On to `Oc1c(I)cc(Cl)c2cccnc12` [CLIOQUINOL], for which the values for the Hepatotoxicity entry with Hepatotoxicity [1], with Hepatotoxicity [2] and in the series on Hepatotoxicity [3] were “no drug-induced liver injury reported”, “drug-induced liver injury reported” and “no drug-induced liver injury reported”, respectively.

With `CN1C(=O)CC(=O)N(c2ccccc2)c2cc(Cl)ccc21` [CLOBAZAM], the Hepatotoxicity result with Hepatotoxicity [1] was “drug-induced liver injury reported”; in the series on Hepatotoxicity [2], “no drug-induced liver injury reported”; with Hepatotoxicity [3], “no drug-induced liver injury reported”.

As for `O=P(O)(O)C(Cl)(Cl)P(=O)(O)O` [CLODRONIC ACID], the results for the Hepatotoxicity result in the series with Hepatotoxicity [1], with Hepatotoxicity [2] and with Hepatotoxicity [3] were “no drug-induced liver injury reported”, “drug-induced liver injury reported” and “no drug-induced liver injury reported”, respectively.

For `Nc1nc(Cl)nc2c1ncn2[C@@H]1O[C@H](CO)[C@@H](O)[C@@H]1F` [CLOFARABINE], the Hepatotoxicity result is “drug-induced liver injury reported” in the series on Hepatotoxicity [1], “no drug-induced liver injury reported” with Hepatotoxicity [2] and “no drug-induced liver injury reported” with Hepatotoxicity [3].

As to `CC(C)/N=c1\cc2n(-c3ccc(Cl)cc3)c3ccccc3nc-2cc1Nc1ccc(Cl)cc1` [CLOFAZIMINE], the Hepatotoxicity result is listed as “drug-induced liver injury reported” in the series on Hepatotoxicity [1], “no drug-induced liver injury reported” with Hepatotoxicity [2] and “no drug-induced liver injury reported” with Hepatotoxicity [3].

Regarding `CCOC(=O)C(C)(C)Oc1ccc(Cl)cc1` [CLOFIBRATE], the Hepatotoxicity entry in the series on Hepatotoxicity [1], in the series with Hepatotoxicity [2] and with Hepatotoxicity [3] was “drug-induced liver injury reported” each time.

Consider `Cc1ncsc1CCCl` [CLOMETHIAZOLE], for which the Hepatotoxicity entry in the series on Hepatotoxicity [1] is reported as “drug-induced liver injury reported”; in the series with Hepatotoxicity [2], “drug-induced liver injury reported”; in the series with Hepatotoxicity [3], “no drug-induced liver injury reported”.

Turning to `Clc1cccc(Cl)c1N=C1NCCN1` [CLONIDINE], the values for the Hepatotoxicity entry in the series on Hepatotoxicity [1] (Liver), with Hepatotoxicity [2] (Liver) and in the series on Hepatotoxicity [3] (Liver) were “drug-induced liver injury reported”, “drug-induced liver injury reported” and “no drug-induced liver injury reported”, respectively.

For the compound `COC(=O)[C@H](c1ccccc1Cl)N1CCc2sccc2C1` [CLOPIDOGREL], the Hepatotoxicity entry with Hepatotoxicity [1] (Liver) is “drug-induced liver injury reported”; with Hepatotoxicity [2] (Liver) it was “drug-induced liver injury reported”; in the series with Hepatotoxicity [3] (Liver), “no drug-induced liver injury reported”.
